Assay [1] deals with neural progenitor cells (NPCs). Put plainly: NPCs co-cultured with microglia pre-activated by aggregated Aβ and cytokines (β-III-tubulin). The assay is classed as cell-based, mouse. The settings on record: 10 days co-culture; Aβ 5 μM, IFN-γ 10 ng/ml. The method, then: (xlvi) Reagents. Recombinant mouse IFN-γ and IL-4 (both containing endotoxin at a concentration below 0.1 ng/μg cytokine) were obtained from R&D Systems (Minneapolis, Minn.). β-amyloid peptides [amyloid protein fragment 1-40 and 1-42 (Aβ1-40/1-42)] were purchased from Sigma-Aldrich, St. Louis, Mo. The Aβ peptides were dissolved in endotoxin-free water, and Aβ aggregates were formed by incubation of Aβ, as described (Ishii et al., 2000).
(li) Neural progenitor cell culture. Coronal sections (2 mm thick) of tissue containing the subventricular zone of the lateral ventricle were obtained from the brains of adult C57B1/6J mice. The tissue was minced and then incubated for digestion at 37° C., 5% CO2 for 45 min in Earle's balanced salt solution containing 0.94 mg/ml papain (Worthington, Lakewood, N.J.) and 0.18 mg/ml of L-cysteine and EDTA. After centrifugation at 110×g for 15 min at room temperature, the tissue was mechanically dissociated by pipette trituration. Cells obtained from single-cell suspensions were plated (3500 cells/cm^2) in 75-cm^2 Falcon tissue-culture flasks (BD Biosciences, San Diego, Calif.), in NPC-culturing medium [Dulbecco's modified Eagles's medium (DMEM)/F12 medium (Gibco/Invitrogen, Carlsbad, Calif.) containing 2 mM L-glutamine, 0.6% glucose, 9.6 μg/ml putrescine, 6.3 ng/ml progesterone, 5.2 ng/ml sodium selenite, 0.02 mg/ml insulin, 0.1 mg/ml transferrin, 2 μg/ml heparin (all from Sigma-Aldrich, Rehovot, Israel), fibroblast growth factor-2 (human recombinant, 20 ng/ml), and epidermal growth factor (human recombinant, 20 ng/ml; both from Peprotech, Rocky Hill, N.J.)]. Spheres were passaged every 4-6 days and replated as single cells. Green fluorescent protein (GFP)-expressing NPCs were obtained as previously described (Pluchino et al., 2003).
(lii) Primary microglial culture. Brains from neonatal (P0-P1) C57B1/6J mice were stripped of their meninges and minced with scissors under a dissecting microscope (Zeiss, Stemi DV4, Germany) in Leibovitz-15 medium (Biological Industries, Kibbutz Beit Ha-Emek, Israel). […]

For assay [2], the system named is C57B1/6J mice with spinal cord injury. Description: Spinal cord contusion in mice: motor recovery (Basso motor score) after immunization and aNPC transplantation. The assay is classed as in vivo, mouse.
Assay [3] relates to neural progenitor cells (NPCs). Description: Oligodendrocyte differentiation of GFP-expressing NPCs co-cultured with differently activated microglia (NG2, RIP). The assay is classed as cell-based, mouse. The settings on record: direct addition to NPCs, 500 ng/ml, no insulin. As to the method: (i) Neuralprogenitor cell (NPC) culture. Coronal sections (2 mm thick) of tissue containing the subventricular zone of the lateral ventricle were obtained from the brains of adult C57B16/J mice. The tissue was minced and then incubated for digestion at 37° C., 5% CO2 for 45 mine in Earle's balanced salt solution containing 0.94 mg/ml papain (Worthington, Lakewood, N.J.) and 0.18 mg/ml of L-cysteine and EDTA. After centrifugation at 110×g for 15 min at room temperature, the tissue was mechanically dissociated by pipette trituration. Cells obtained from single-cell suspensions were plated (3500 cells/cm^2) in 75-cm^2 Falcon tissue-culture flasks (BD Biosciences, Franklin Lakes, N.J.), in NPC-culturing medium [Dulbecco's modified Eagles's medium (DMEM)/F12 medium (Gibco/Invitrogen, Carlsbad, Calif.) containing 2 mM L-glutamine, 0.6% glucose, 9.6 μg/ml putrescine, 6.3 ng/ml progesterone, 5.2 ng/ml sodium selenite, 0.02 mg/ml insulin, 0.1 mg/ml transferrin, 2 μg/ml heparin (all from Sigma-Aldrich, Rehovot, Israel), fibroblast growth factor-2 (human recombinant, 20 ng/ml), and epidermal growth factor (human recombinant, 20 ng/ml; both from Peprotech, Rocky Hill, N.J.)]. Spheres were passaged every 4-6 days and replated as single cells. Green fluorescent protein (GFP)-expressing neural progenitor cells (NPCs) were obtained as previously described (Pluchino et al., 2003). […]

In the case of “Aβ(1-40): aggregated amyloid protein fragment 1-40 used to activate microglia”, in assay [1], the “GFP^+/βIIIT^+ cells (neurogenesis) with microglia activated by the agent” value is recorded as “blocked neurogenesis”. As for “Aβ(1-42): amyloid protein fragment 1-42 used to activate microglia”, in assay [1], the “GFP^+/βIIIT^+ cells (neurogenesis) with microglia activated by the agent” value was “negative effect was not exhibited”. Turning to “MOG, residues 35-55 MEVGWYRSPFSRVVHLYRNGK (emulsified in CFA) [MOG/CFA, MOG peptide 35-55 emulsified in CFA containing 2.5% Mycobacterium tuberculosis]”, the BMS in assay [2] (MOG peptide 35-55 in CFA 2.5% M. tuberculosis one week prior to SCI, no aNPCs) came to 0.35±0.2. Take “MOG/CFA/PBS: immunization with pMOG 35-55 in CFA, PBS i.c.v. instead of aNPCs (MEVGWYRSPFSRVVHLYRNGK; in CFA; UniProt Q61885 63-83, looked up, fragment)”: the “mean motor recovery (BMS) score” value in assay [2] (immunization immediately after SCI (pMOG 35-55 or PBS in CFA 0.5% M. tuberculosis), aNPCs or PBS i.c.v. 1 week later, mean±SEM) was 2.71±0.5. With “OVA/CFA/PBS: nonself protein ovalbumin (OVA) emulsified in CFA, PBS i.c.v.”, the BMS in assay [2] (ovalbumin in CFA 2.5% M. tuberculosis, aNPCs or PBS i.c.v.) came out at 2.2±0.68. On to “altered MOG peptide (45D) MEVGWYRSPFDRVVHLYRNGK [45D peptide, peptide analog of MOG 35-55 containing a serine to aspartic acid substitution]”, for which the BMS in assay [2] (immunization in CFA 2.5% M. tuberculosis 1 week before SCI, aNPCs i.c.v. 1 week after SCI, mean±SEM) was 4.11±0.27; in assay [2] (immunization in CFA 2.5% M. tuberculosis 1 week before SCI, without aNPC transplantation), 2.57±0.24.

rIGF-I: recombinant IGF-I: the “differentiation of NPCs to NG2-expressing cells” value in assay [3] is on record as “significant differentiation to NG2-expressing cells”.

These data come from patent publication US20090010873A1, “Methods of Cell Therapy, Neurogenesis and Oligodendrogenesis” (YEDA RESEARCH AND DEVELOPMENT CO. LTD., priority 2004, published 2009).
